The record followed here is patent publication US11584763B2, “Chromenopyridine derivatives as phosphatidylinositol phosphate kinase inhibitors” (HIBERCELL, INC., priority 2017, dated 2023).

Holding throughout (type): biochemical
The target in assay [1] is T1, PIP4K2B (Homo sapiens, UniProt P78356).
T1 construct: made in house; host or cells: E. coli
T1 sequence (P78356 1-416): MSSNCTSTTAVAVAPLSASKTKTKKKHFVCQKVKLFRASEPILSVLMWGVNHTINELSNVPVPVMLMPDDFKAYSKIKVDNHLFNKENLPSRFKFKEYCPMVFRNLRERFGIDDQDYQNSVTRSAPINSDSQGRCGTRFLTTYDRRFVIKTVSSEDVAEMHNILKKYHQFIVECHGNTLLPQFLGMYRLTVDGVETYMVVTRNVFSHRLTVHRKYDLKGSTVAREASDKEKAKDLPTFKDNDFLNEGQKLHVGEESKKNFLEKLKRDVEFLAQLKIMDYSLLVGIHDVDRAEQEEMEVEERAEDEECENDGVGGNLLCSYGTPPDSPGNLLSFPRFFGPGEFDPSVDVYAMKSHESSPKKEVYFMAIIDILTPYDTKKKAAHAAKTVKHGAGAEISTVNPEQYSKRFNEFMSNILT
Description: Trans-FI P kinase assay PIP4K2B (PIP4KtypeIIB inhibition assay). Particulars: compounds listed under IC50 bin headings; 100 uM GTP; read-out: Trans-FI P kinase assays: PIP4K2B IC50. Summed up: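 Transcreener FI fluorescence read-out of GDP formed by E. coli-expressed GST-PIP4K2B (5 nM) using 100 uM GTP and 80 uM PI5P with DOPE carrier lipid, pH 7.3, 2 h reaction. Compounds (up to 4.8 uM) were preincubated with enzyme 1 h at 27 C; IC50 fitted from residual activity relative to no-inhibitor control.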

The target of assay [2] is T2, PIP4K 2A (Homo sapiens, UniProt P48426).
T2 sequence (P48426 1-406): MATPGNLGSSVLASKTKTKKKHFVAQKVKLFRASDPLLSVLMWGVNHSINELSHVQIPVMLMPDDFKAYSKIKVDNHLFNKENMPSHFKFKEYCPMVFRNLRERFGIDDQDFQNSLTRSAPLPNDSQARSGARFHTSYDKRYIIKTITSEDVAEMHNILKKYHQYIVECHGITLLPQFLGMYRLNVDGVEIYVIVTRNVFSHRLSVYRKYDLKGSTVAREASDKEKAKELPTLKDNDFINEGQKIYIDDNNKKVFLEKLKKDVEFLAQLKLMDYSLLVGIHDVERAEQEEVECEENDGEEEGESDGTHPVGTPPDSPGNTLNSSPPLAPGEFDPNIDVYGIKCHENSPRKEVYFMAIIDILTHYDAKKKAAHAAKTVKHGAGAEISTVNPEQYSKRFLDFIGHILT
In words: Kinase Assay PIP4K2 A (PIP4KtypeIIA inhibition assay). Details: made in house; host or cells: E. coli. Particulars: compounds listed under IC50 bin headings. Summed up:
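GST-tagged enzyme from E. coli at 0.5 nM final was preincubated with compound for 1 h at 27 C, then reacted with 10 uM ATP, 80 uM PI5P and DOPE carrier in 50 mM HEPES pH 7.3, 5% DMSO. After 1 h, ADP was measured by ADP-Glo luminescence against a calibration curve. IC50 was fitted from % residual activity.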

For assay [3], the target named is T2, PIP4K 2A. In words: ADP-glo kinase assay PIP4K 2A. Details: 4 nM PIP4K2A (full length protein, SignalChem); purchased SignalChem. Particulars: compounds listed under IC50 bin headings. An outline of the steps:
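Inhibition was calculated versus DMSO controls from ADP-Glo luminescence and fitted to IC50 over a 10-point, threefold series. Compound was first pre-incubated 15 min at room temperature with PIP4K2A (full-length; 4 nM in the enzyme/substrate mix) and PI(5)P diC8 (100 μM in that mix). The reaction then ran for 1 h after adding 60 μM ATP solution, in MOPS pH 7.2/MgCl2/Tween buffer.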
A general note: ADP-Glo turns the ADP formed in a reaction into a luminescent signal.

Each structure is given as a SMILES string.

`CC1Oc2cc(N3CCCC3=O)ccc2-c2cnc(Nc3cncc(Nc4cccnn4)c3)cc21` (stereo not drawn) [Example 131, 1-(5-methyl-3-((5-(pyridazin-3-ylamino)pyridin-3-yl)amino)-5H-chromeno[4,3-c]pyridin-8-yl)pyrrolidin-2-one]: the IC50 – broadly, the midpoint of a concentration-inhibition curve – in assay [1] is 10 to 100 nM; in assay [2], at most 1 nM; in assay [3], 1 to 10 nM.
In the same order, the values of `CC1(C)Oc2cc(N3CCCC3=O)c(F)cc2-c2cnc(Nc3cnc4c(c3)N3C(=O)CC[C@H]3CO4)cc21` [Example 148, (S)-2-((9-fluoro-5,5-dimethyl-8-(2-oxopyrrolidin-1-yl)-5H-chromeno[4,3-c]pyridin-3-yl)amino)-6,6a,7,8-tetrahydro-9H-pyrido[2,3-b]pyrrolo[1,2-d][1,4]oxazin-9-one] are 1 to 10 nM, at most 1 nM and at most 1 nM.
In the same order, the values of `CC1(C)Oc2cc(N3CCCC3=O)c(F)cc2-c2cnc(Nc3cncc(N4CCNC4=O)c3)cc21` [Example 149, 1-(5-((9-fluoro-5,5-dimethyl-8-(2-oxopyrrolidin-1-yl)-5H-chromeno[4,3-c]pyridin-3-yl)amino)pyridin-3-yl)imidazolidin-2-one] are 10 to 100 nM, at most 1 nM and 1 to 10 nM.
In the same order, the values of `CC1(C)Oc2cc(N3CCCC3=O)ccc2-c2cnc(Nc3cnc4c(c3)OCCO4)cc21` [Example 164, 1-(3-((2,3-dihydro-[1,4]dioxino[2,3-b]pyridin-7-yl)amino)-5,5-dimethyl-5H-chromeno[4,3-c]pyridin-8-yl)pyrrolidin-2-one] are 10 to 100 nM, at most 1 nM and 1 to 10 nM.
Turning to `CC1(C)Oc2cc(N3CCCC3=O)c(F)cc2-c2cnc(Nc3cnc4c(c3)OCCO4)cc21` [Example 167, 1-(3-((2,3-dihydro-[1,4]dioxino[2,3-b]pyridin-7-yl)amino)-9-fluoro-5,5-dimethyl-5H-chromeno[4,3-c]pyridin-8-yl)pyrrolidin-2-one], the IC50 was 10 to 100 nM in assay [1], at most 1 nM in assay [2] and at most 1 nM in assay [3].
Regarding `COCCC(=O)N1CCN(c2cncc(Nc3cc4c(cn3)-c3ccc(N5CCCC5=O)cc3OC4(C)C)c2)CC1` [Example 170, 1-(3-((5-(4-(3-methoxypropanoyl)piperazin-1-yl)pyridin-3-yl)amino)-5,5-dimethyl-5H-chromeno[4,3-c]pyridin-8-yl)pyrrolidin-2-one], the IC50 was 10 to 100 nM in assay [1], at most 1 nM in assay [2] and 1 to 10 nM in assay [3].
In the same order, the values of `COCCC(=O)N1CCN(c2cncc(Nc3cc4c(cn3)-c3cc(F)c(N5CCCC5=O)cc3OC4(C)C)c2)CC1` [Example 173, 1-(9-fluoro-3-((5-(4-(3-methoxypropanoyl)piperazin-1-yl)pyridin-3-yl)amino)-5,5-dimethyl-5H-chromeno[4,3-c]pyridin-8-yl)pyrrolidin-2-one] are 10 to 100 nM, 1 to 10 nM and 1 to 10 nM.
Turning to `C[C@H]1Oc2cc(N3CCCC3=O)ccc2-c2cnc(Nc3cnc4c(c3)N3C(=O)CC[C@H]3CO4)cc21` [Example 192, (S)-2-(((R)-5-methyl-8-(2-oxopyrrolidin-1-yl)-5H-chromeno[4,3-c]pyridin-3-yl)amino)-6,6a,7,8-tetrahydro-9H-pyrido[2,3-b]pyrrolo[1,2-d][1,4]oxazin-9-one], the IC50 is 10 to 100 nM in assay [1], at most 1 nM in assay [2] and at most 1 nM in assay [3].
For the compound `O=C1CCCN1c1ccc2c(c1)OC1(COC1)c1cc(Nc3cnc4c(c3)N3C(=O)CC[C@H]3CO4)ncc1-2` [Example 194, (S)-2-((8-(2-oxopyrrolidin-1-yl)spiro[chromeno[4,3-c]pyridine-5,3′-oxetan]-3-yl)amino)-6,6a,7,8-tetrahydro-9H-pyrido[2,3-b]pyrrolo[1,2-d][1,4]oxazin-9-one], the IC50 was 1 to 10 nM in assay [1], 1 to 10 nM in assay [2] and at most 1 nM in assay [3].
`O=C1CCCN1c1ccc2c(c1)OC1(CCC1)c1cc(Nc3cnc4c(c3)N3C(=O)CC[C@H]3CO4)ncc1-2` [Example 195, (S)-2-((8-(2-oxopyrrolidin-1-yl)spiro[chromeno[4,3-c]pyridine-5,1′-cyclobutan]-3-yl)amino)-6,6a,7,8-tetrahydro-9H-pyrido[2,3-b]pyrrolo[1,2-d][1,4]oxazin-9-one]: the IC50 was 1 to 10 nM in assay [1], at most 1 nM in assay [2] and at most 1 nM in assay [3].
Turning to `O=C1CCCN1c1ccc2c(c1)OCc1c(-c3ccncc3)cncc1-2` [Example 202, 1-(4-(pyridin-4-yl)-5H-chromeno[4,3-c]pyridin-8-yl)pyrrolidin-2-one], the results for the half-inhibitory concentration (IC50) in assay [1], in assay [2] and in assay [3] were above 1000 nM, 100 to 1000 nM and above 1000 nM, respectively.
